# In article PMC7080406 (eLife, 2020):
# Several values for one entry are separate records, joined by “and”; a condition that tells them apart may be missing. Equal values may be shown once. Entries after “also recorded” stand apart in the source; their conditions may differ. Read-outs that look alike come from different tables or passages of the source.
# Legend:
# MT2 [1] = biological target: T1, MT2 (Homo sapiens, UniProt P49286); assay: GloSensor Gi/o-mediated cAMP production inhibition assay, MT2; format: cell-based; set-up: expressed in transfected cells; host or cells: HEK293T (ATCC CRL-11268), transient transfection; conditions: for MT2/MT1 Selectivity: Antilog (log(Emax/EC50) MT2 - log (Emax/EC50) MT1), values below 1 = MT1 selectivity; for EC50: Gi/o mediated, read-out: MT2 EC50; for Emax: MT2, activation compared to melatonin, read-out: MT2 Emax ± SEM; for MT2 LE: ligand efficiency (based on EC50)
# T1 sequence (P49286 1-362): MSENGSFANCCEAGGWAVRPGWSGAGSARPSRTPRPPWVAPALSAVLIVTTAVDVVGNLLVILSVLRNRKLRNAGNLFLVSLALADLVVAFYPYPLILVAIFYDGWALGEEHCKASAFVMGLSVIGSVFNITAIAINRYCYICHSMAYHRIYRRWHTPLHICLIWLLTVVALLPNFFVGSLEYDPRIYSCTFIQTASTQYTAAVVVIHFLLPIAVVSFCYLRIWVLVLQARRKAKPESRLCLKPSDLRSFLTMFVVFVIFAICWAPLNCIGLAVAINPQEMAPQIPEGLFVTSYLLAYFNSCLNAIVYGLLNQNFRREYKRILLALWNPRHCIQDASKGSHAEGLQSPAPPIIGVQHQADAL
# Experimental: (§1) Briefly, HEK293 T cells (as above) were transiently co-transfected with receptor (MT1 or MT2) and GloSensor cAMP (Promega) plasmids overnight, plated in Poly-L-Lysine coated 384-well white clear bottom plates in DMEM + 1% dialyzed FBS. Cells were used for assays at a minimum of 6 hr after plating. Culture medium was first removed and cells were stimulated with drugs in assay buffer (1x HBSS, 20 mM HEPES, 1 mg/ml BSA, 0.1 mg/ml ascorbic acid, pH 7.4) for 15 min at room temperature (this and all the following steps), followed by addition of a mixture of isoproterenol (final of 100 nM) and luciferin (final of 1 mM) for Gi/o-cAMP production inhibition assays and luciferin (final of 1 mM) for Gs-cAMP production assays. The plates were counted for luminescence after 25 min in a luminescence plate reader. Results were analyzed using GraphPad Prism 7.0.
# MT1 [2] = biological target: T2, MT1 (Homo sapiens, UniProt P48039); assay: GloSensor Gi/o-mediated cAMP production inhibition assay, MT1; format: cell-based; conditions: for EC50: Gi/o mediated; for MT1 LE: ligand efficiency (based on EC50); for Emax: read-out: MT1 Emax ± SEM
# T2 construct: expressed in transfected cells; host or cells: HEK293T (ATCC CRL-11268), transient transfection
# Experimental: as §1
# MT2 [3] = biological target: T1, MT2; assay: [3H]melatonin competition radioligand binding, MT2 membranes; set-up: expressed in transfected cells; host or cells: HEK293T (ATCC CRL-11268), transient transfection; conditions: read-out: MT2 pKi ± SEM (converted)
# Experimental: (§2) The Radioligand binding assays were conducted by the NIMH Psychoactive Drug Screening Program (PDSP). The NIMH PDSP is directed by Bryan L. Roth, MD, PhD, at the University of North Carolina at Chapel Hill, North Carolina, and Program Officer Jamie Driscoll at NIMH, Bethesda, MD. Binding assay procedures and protocols are also available online at http://pdspdb.unc.edu/pdspWeb/?site=assays. […] Assay plates were sealed and incubated for 4 hr at 37°C in a humidified incubator until harvesting. Plates were harvested using vacuum filtration onto 0.3% polyethyleneimine pre-soaked 96-well Filtermat A (PerkinElmer) and washed three times with cold wash buffer (50 mM Tris, pH 7.4). Filters were dried and melted with a scintillation cocktail (Meltilex, PerkinElmer). Radioactivity was counted using a Wallac TriLux Microbeta counter (PerkinElmer). Results were analyzed using GraphPad Prism 7.0.
# MT1 [4] = biological target: T2, MT1; assay: [3H]melatonin competition radioligand binding, MT1 membranes; conditions: read-out: MT1 pKi ± SEM (converted)
# Experimental: as §2
# [5] = biological target: T3, MT1 N162Q mutant receptor (Homo sapiens, UniProt P48039, N162Q); assay: Tango β-arrestin recruitment assay, MT1 N162Q mutant; format: cell-based
# T3 construct: expressed in transfected cells; host or cells: HTLA cells (HEKT based)
# Experimental: (§3) In brief, HTLA cells were transiently transfected with receptor TANGO DNA constructs overnight in DMEM with 10% FBS. Transfected cells were then plated into poly-L-Lys coated 384-well plates using DMEM supplemented with 1% dialyzed FBS. After 6 hr incubation, drug dilutions, prepared in DMEM with 1% dFBS, were added for incubation overnight (16–20 hr). Medium and drug solutions were removed, Bright-Glo reagent (20 uL/well) was added for luminescence counting 20 min later. Results were analyzed in GraphPad Prism 7.0.
# [6] = system: panel of 47 common drug targets (GPCRs, ion-channels and transporters); assay: Binding profiling at a panel of 47 common drug targets; conditions: final concentration of 10 μM
# Experimental: as §2, with “http://pdspdb.unc.edu/pdspWeb/?site=assays. All the radioligand binding assays were performed using membranes prepared from transiently transfected HEK293T cells (purchased from ATCC, CRL-11268, authenticated by the supplier using morphology, growth characteristics, and STR profiling and certified mycoplasma-free) and in standard binding buffer (50 mM Tris, 10 mM MgCl2, 0.1 mM EDTA, 0.1% BSA, 0.01% ascorbic acid, pH 7.4) as recently reported ([Stauch et al., 2019]).” for “http://pdspdb.unc.edu/pdspWeb/?site=assays.”
# [7] = biological target: T4, MT1 Y281F mutant receptor (Homo sapiens, UniProt P48039, Y281F); assay: Tango β-arrestin recruitment assay, MT1 Y281F mutant; format: cell-based; conditions: normalized individually (basal 0%, maximum 100%); mean ± SEM, minimum of 3 assays; read-out: pEC50, Tango, MT1 Y281F (converted)
# T4 construct: expressed in transfected cells; host or cells: HTLA cells (HEKT based)
# Experimental: as §3
# MT1 wildtype (WT) = biological target: T5, MT1 wildtype (WT) (Homo sapiens, UniProt P48039); assay: Tango β-arrestin recruitment assay, MT1 wildtype; format: cell-based
# T5 construct: host or cells: HTLA cells (HEKT based)
# Experimental: as §3
# [8] = SEM, N = 3, read-out: MT1 pEC50 ± SEM (converted)
# T2 sequence (P48039 whole entry): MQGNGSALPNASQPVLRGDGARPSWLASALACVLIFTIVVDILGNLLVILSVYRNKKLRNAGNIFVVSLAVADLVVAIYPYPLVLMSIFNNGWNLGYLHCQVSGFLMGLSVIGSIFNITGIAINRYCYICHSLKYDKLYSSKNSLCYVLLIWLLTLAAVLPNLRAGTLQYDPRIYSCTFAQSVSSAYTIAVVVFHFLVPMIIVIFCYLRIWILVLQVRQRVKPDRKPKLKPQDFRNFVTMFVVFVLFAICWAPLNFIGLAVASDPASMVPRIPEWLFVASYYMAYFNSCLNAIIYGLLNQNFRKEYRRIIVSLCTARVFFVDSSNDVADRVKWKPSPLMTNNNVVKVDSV
# T5 sequence (P48039 whole entry): as above
# T3 sequence (P48039 whole entry N162Q): as the sequence (P48039 whole entry) above, with N162Q counted along it
# T4 sequence (P48039 whole entry Y281F): as the sequence (P48039 whole entry) above, with Y281F counted along it
smiles,measurement,setting,value
"COc1cccc([C@@H]2C[C@H]2CNC(=O)C(N)=O)c1 (racemic) [Compound 23, rac-N'-{[(1R,2R)-2-(3-methoxyphenyl)cyclopropyl]methyl}ethanediamide]",MT2/MT1 Selectivity,MT2 [1],2.7 fold
same,EC50,MT2 [1],20.4 nM
same,Emax,MT2 [1],91.7 ± 3%
same,MT2 LE,MT2 [1],0.60 kcal/mol per non-hydrogen atom
same,EC50,MT1 [2]; [8],69.2 nM
same,EC50,MT1 [2]; read-out: MT1 EC50,57.5 nM
same,MT1 LE,MT1 [2],0.56 kcal/mol per non-hydrogen atom
same,Emax,MT1 [2],96.9 ± 5.3%
same,Ki,MT2 [3],2750 nM
same,Ki,MT1 [4],3800 nM
NC(=O)c1cc(C(=O)c2ccccc2Cl)c[nH]1 [Compound 47],MT2/MT1 Selectivity,MT2 [1],187 fold and 186.9 fold
same,EC50,MT2 [1],10 nM and 10.2 nM
same,Emax,MT2 [1],91.7 ± 3%
same,MT2 LE,MT2 [1],0.66 kcal/mol per non-hydrogen atom
same,EC50,MT1 [2]; read-out: MT1 EC50,2340 nM
same,EC50,"MT1 [2]; text value, read-out: MT1 EC50",2340 nM
same,MT1 LE,MT1 [2],0.46 kcal/mol per non-hydrogen atom
same,Emax,MT1 [2],112 ± 5.2%
same,Ki,MT2 [3],1230 nM
same,Ki,MT1 [4],26300 nM
Nc1cc(=O)[nH]c(=S)n1CCc1ccccc1 [Compound 62],MT2/MT1 Selectivity,MT2 [1],875.9 fold
same,EC50,MT2 [1],52.5 nM
same,Emax,MT2 [1],< 70%
same,MT2 LE,MT2 [1],0.60 kcal/mol per non-hydrogen atom
same,EC50,MT1 [2]; [8],40700 nM
same,EC50,MT1 [2]; read-out: MT1 EC50,42700 nM
same,MT1 LE,MT1 [2],0.36 kcal/mol per non-hydrogen atom
same,Emax,MT1 [2],54.1 ± 10%
same,Ki,MT2 [3],3240 nM
same,Ki,MT1 [4],47900 nM
"COc1cccc(CNC(=O)c2ccno2)c1 [Compound 57, N-[(3-methoxyphenyl)methyl]-1,2-oxazole-5-carboxamide]",MT2/MT1 Selectivity,MT2 [1],10.3 fold
same,EC50,MT2 [1],132 nM
same,Emax,MT2 [1],< 70%
same,MT2 LE,MT2 [1],0.57 kcal/mol per non-hydrogen atom
same,EC50,MT1 [2]; [8],1910 nM
same,EC50,MT1 [2]; read-out: MT1 EC50,1780 nM
same,MT1 LE,MT1 [2],0.47 kcal/mol per non-hydrogen atom
same,Emax,MT1 [2],87.5 ± 9.1%
same,Ki,MT2 [3],4270 nM
same,Ki,MT1 [4],14500 nM
"COc1ccc2[nH]cc(CCNC(C)=O)c2c1 [Melatonin, N-acetyl-5-methoxytryptamine, reference compound]",Emax,MT1 [2],100 ± 5.6%
CC(=O)c1sc2nc3c(cc2c1N)CCC3 [Compound 45],MT2/MT1 Selectivity,MT2 [1],17 fold and 16.9 fold
same,EC50,MT2 [1],427 nM
same,Emax,MT2 [1],75 ± 7.4%
same,MT2 LE,MT2 [1],0.56 kcal/mol per non-hydrogen atom
same,EC50,MT1 [2]; read-out: MT1 EC50,8710 nM
same,MT1 LE,MT1 [2],0.44 kcal/mol per non-hydrogen atom
same,Emax,MT1 [2],90.6 ± 14.3%
same,Ki,MT2 [3],5500 nM
same,Ki,MT1 [4],28800 nM
"COc1cccc(CNc2nc(C3CC3)no2)c1 [Compound 37, 3-cyclopropyl-N-[(3-methoxyphenyl)methyl]-1,2,4-oxadiazol-5-amine]","increase of potency, MT1 N162Q versus WT",[5]; Tango,2 fold
same,EC50,"[5]; normalized individually (basal 0%, maximum 100%), mean ± SEM, minimum of 3 assays, read-out: pEC50, Tango, MT1 N162Q (converted)",2240 nM
same,MT2/MT1 Selectivity,MT2 [1],>1000.0 fold
same,EC50,MT2 [1],141 nM
same,Emax,MT2 [1],61.1 ± 9.1%
same,MT2 LE,MT2 [1],0.53 kcal/mol per non-hydrogen atom
same,EC50,MT1 [2]; read-out: MT1 EC50,> 30000 nM
same,G-protein (Gi) signaling at MT1,MT1 [2]; result in words,devoid of Gi signaling; also recorded: completely lacks G-protein signaling
same,Ki,MT2 [3],3550 nM
same,binding at panel of 47 common drug targets,[6],did not show any substantial binding
same,EC50,[7],11700 nM
same,Ki,MT1 [4],8510 nM
same,EC50,"MT1 wildtype (WT); normalized individually (basal 0%, maximum 100%), mean ± SEM, minimum of 3 assays, read-out: pEC50, Tango, MT1 WT (converted)",4170 nM
same,β-arrestin activity at MT1,MT1 wildtype (WT); result in words,substantial β-arrestin activity
"COc1cccc(Cn2c(N)cc(=O)[nH]c2=O)c1 [Compound 44, 6-amino-1-[(3-methoxyphenyl)methyl]-1,2,3,4-tetrahydropyrimidine-2,4-dione]",MT2/MT1 Selectivity,MT2 [1],267 fold and 267.2 fold
same,EC50,MT2 [1],263 nM
same,Emax,MT2 [1],88.9 ± 6.3%
same,MT2 LE,MT2 [1],0.51 kcal/mol per non-hydrogen atom
same,EC50,MT1 [2]; read-out: MT1 EC50,57500 nM
same,MT1 LE,MT1 [2],0.33 kcal/mol per non-hydrogen atom
same,Emax,MT1 [2],72.8 ± 4.7%
same,Ki,MT2 [3],11200 nM
same,Ki,MT1 [4],64600 nM
"CC(=O)NCC1CCCCN1c1ccnc(C)n1 (stereo not drawn) [Compound 29, N-{[1-(2-methylpyrimidin-4-yl)piperidin-2-yl]methyl}acetamide]",MT2/MT1 Selectivity,MT2 [1],3.3 fold
same,EC50,MT2 [1],34.7 nM
same,Emax,MT2 [1],< 70%
same,MT2 LE,MT2 [1],0.58 kcal/mol per non-hydrogen atom
same,EC50,MT1 [2]; [8],148 nM
same,EC50,MT1 [2]; read-out: MT1 EC50,144 nM
same,MT1 LE,MT1 [2],0.53 kcal/mol per non-hydrogen atom
same,Emax,MT1 [2],87.5 ± 4.5%
same,Ki,MT2 [3],2450 nM
same,Ki,MT1 [4],6030 nM
COC(=O)c1[nH]c2cc(OC)ccc2c1N [Compound 54],MT2/MT1 Selectivity,MT2 [1],36.9 fold
same,EC50,MT2 [1],18.2 nM
same,Emax,MT2 [1],75 ± 3.7%
same,MT2 LE,MT2 [1],0.68 kcal/mol per non-hydrogen atom
same,EC50,MT1 [2]; [8],871 nM
same,EC50,MT1 [2]; read-out: MT1 EC50,741 nM
same,MT1 LE,MT1 [2],0.54 kcal/mol per non-hydrogen atom
same,Emax,MT1 [2],82.8 ± 4.3%
same,Ki,MT2 [3],2750 nM
same,Ki,MT1 [4],9330 nM
